Source: PubChem BioAssay (NCI)
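Cells were grown in 96-well plates and exposed to each compound for 48 hours at five concentrations; endpoints were interpolated linearly between bracketing concentrations, or set to the highest concentration if not reached. GI50 = concentration required for 50% inhibition of growth. Definition used: TGI = concentration required for complete inhibition of growth.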

Assays:
Test in all cases: NCI anticancer screen, dose series, 48 h
BT-549 breast = tested on: BT-549 breast
M14 melanoma = tested on: M14 melanoma
SW-620 colon = tested on: SW-620 colon
SR leukemia = tested on: SR leukemia
CAKI-1 renal = tested on: CAKI-1 renal
UACC-62 melanoma = tested on: UACC-62 melanoma
HCC-2998 colon = tested on: HCC-2998 colon
K-562 leukemia = tested on: K-562 leukemia
SF-295 CNS = tested on: SF-295 CNS
SF-268 CNS = tested on: SF-268 CNS
UACC-257 melanoma = tested on: UACC-257 melanoma
NCI-H23 lung = tested on: NCI-H23 lung
SN12C renal = tested on: SN12C renal
COLO 205 colon = tested on: COLO 205 colon
NCI-H460 lung = tested on: NCI-H460 lung
MDA-MB-231 breast = tested on: MDA-MB-231 breast
SK-MEL-28 melanoma = tested on: SK-MEL-28 melanoma
UO-31 renal = tested on: UO-31 renal
CCRF-CEM leukemia = tested on: CCRF-CEM leukemia
NCI-H226 lung = tested on: NCI-H226 lung
HOP-62 NSCLC = tested on: HOP-62 NSCLC
SK-MEL-5 melanoma = tested on: SK-MEL-5 melanoma
HCT-116 colon = tested on: HCT-116 colon
HT29 colon = tested on: HT29 colon
KM12 colon = tested on: KM12 colon
NCI/ADR-RES ovarian = tested on: NCI/ADR-RES ovarian
T-47D breast = tested on: T-47D breast
A498 renal = tested on: A498 renal
MOLT-4 leukemia = tested on: MOLT-4 leukemia
SK-MEL-2 melanoma = tested on: SK-MEL-2 melanoma
HOP-92 NSCLC = tested on: HOP-92 NSCLC
MCF7 breast = tested on: MCF7 breast
IGROV1 ovarian = tested on: IGROV1 ovarian
RXF 393 renal = tested on: RXF 393 renal
OVCAR-5 ovarian = tested on: OVCAR-5 ovarian
NCI-H522 lung = tested on: NCI-H522 lung
EKVX NSCLC = tested on: EKVX NSCLC
DU-145 prostate = tested on: DU-145 prostate
LOX IMVI melanoma = tested on: LOX IMVI melanoma
PC-3 prostate = tested on: PC-3 prostate
786-0 renal = tested on: 786-0 renal
SNB-75 CNS = tested on: SNB-75 CNS
HL-60(TB) leukemia = tested on: HL-60(TB) leukemia
OVCAR-8 ovarian = tested on: OVCAR-8 ovarian
HCT-15 colon = tested on: HCT-15 colon
OVCAR-3 ovarian = tested on: OVCAR-3 ovarian
OVCAR-4 ovarian = tested on: OVCAR-4 ovarian
U251 CNS = tested on: U251 CNS
HS 578T breast = tested on: HS 578T breast
A549 NSCLC = tested on: A549 NSCLC
MALME-3M melanoma = tested on: MALME-3M melanoma
MDA-MB-435 = tested on: MDA-MB-435
ACHN renal = tested on: ACHN renal
TK-10 renal = tested on: TK-10 renal
RPMI-8226 leukemia = tested on: RPMI-8226 leukemia
SNB-19 CNS = tested on: SNB-19 CNS
SF-539 CNS = tested on: SF-539 CNS

C=CC(=O)N1CC2(CC(n3nc(-c4ccc(Oc5ccccc5)cc4)c4c(N)ncnc43)C2)C1
GI50 (BT-549 breast): 1.4 µM | TGI (BT-549 breast): > 100 µM | GI50 (M14 melanoma): 2.23 µM | TGI (M14 melanoma): > 100 µM | GI50 (SW-620 colon): > 100 µM | TGI (SW-620 colon): > 100 µM | GI50 (SR leukemia): 6.45 µM | TGI (SR leukemia): > 100 µM | GI50 (CAKI-1 renal): 1.04 µM | TGI (CAKI-1 renal): > 100 µM | GI50 (UACC-62 melanoma): 1.72 µM | TGI (UACC-62 melanoma): > 100 µM | GI50 (HCC-2998 colon): > 100 µM | TGI (HCC-2998 colon): > 100 µM | GI50 (K-562 leukemia): 1.19 µM | TGI (K-562 leukemia): > 100 µM | GI50 (SF-295 CNS): > 100 µM | TGI (SF-295 CNS): > 100 µM | GI50 (SF-268 CNS): 1.43 µM | TGI (SF-268 CNS): > 100 µM | GI50 (UACC-257 melanoma): 1.97 µM | TGI (UACC-257 melanoma): > 100 µM | GI50 (NCI-H23 lung): > 100 µM | TGI (NCI-H23 lung): > 100 µM | GI50 (SN12C renal): 0.78 µM | TGI (SN12C renal): > 100 µM | GI50 (COLO 205 colon): 1.46 µM | TGI (COLO 205 colon): > 100 µM | GI50 (NCI-H460 lung): > 100 µM | TGI (NCI-H460 lung): > 100 µM

O=[N+]([O-])c1ccc(Oc2cccc(C(F)(F)F)c2)c([N+](=O)[O-])c1
GI50 (MDA-MB-231 breast): 3.17 µM | TGI (MDA-MB-231 breast): 10.2 µM | GI50 (SK-MEL-28 melanoma): 6.47 µM | TGI (SK-MEL-28 melanoma): 19.9 µM | GI50 (UO-31 renal): 3.15 µM | TGI (UO-31 renal): 13.8 µM | GI50 (CCRF-CEM leukemia): 0.296 µM | TGI (CCRF-CEM leukemia): 3.18 µM | GI50 (NCI-H226 lung): 2.11 µM | TGI (NCI-H226 lung): 5.92 µM | GI50 (HOP-62 NSCLC): 4.01 µM | TGI (HOP-62 NSCLC): 16.1 µM | GI50 (SK-MEL-5 melanoma): 2.53 µM | TGI (SK-MEL-5 melanoma): 7.72 µM | GI50 (HCT-116 colon): 1.24 µM | TGI (HCT-116 colon): 12.7 µM | GI50 (HT29 colon): 4.68 µM | TGI (HT29 colon): 16.2 µM | GI50 (KM12 colon): 2.52 µM | TGI (KM12 colon): 6.73 µM | GI50 (NCI/ADR-RES ovarian): 3.04 µM | TGI (NCI/ADR-RES ovarian): 12.1 µM | GI50 (M14 melanoma): 2.79 µM | TGI (M14 melanoma): 14 µM | GI50 (SW-620 colon): 0.451 µM | TGI (SW-620 colon): 10.1 µM | GI50 (T-47D breast): 2.55 µM | TGI (T-47D breast): 7.66 µM | GI50 (A498 renal): 12.7 µM | TGI (A498 renal): 25.3 µM | GI50 (MOLT-4 leukemia): 0.344 µM | TGI (MOLT-4 leukemia): 2.92 µM | GI50 (SK-MEL-2 melanoma): 3.81 µM | TGI (SK-MEL-2 melanoma): 9.82 µM | GI50 (HOP-92 NSCLC): 1.25 µM | TGI (HOP-92 NSCLC): 5.39 µM | GI50 (MCF7 breast): 2.81 µM | TGI (MCF7 breast): 8.33 µM | GI50 (IGROV1 ovarian): 3.02 µM | TGI (IGROV1 ovarian): 14.2 µM | GI50 (RXF 393 renal): 2.61 µM | TGI (RXF 393 renal): 7.87 µM | GI50 (OVCAR-5 ovarian): 4.08 µM | TGI (OVCAR-5 ovarian): 17.6 µM | GI50 (SR leukemia): 0.286 µM | TGI (SR leukemia): 1.82 µM | GI50 (CAKI-1 renal): 3.08 µM | TGI (CAKI-1 renal): 21.5 µM | GI50 (NCI-H522 lung): 2.11 µM | TGI (NCI-H522 lung): 5.7 µM | GI50 (EKVX NSCLC): 7.11 µM | TGI (EKVX NSCLC): 22.5 µM | GI50 (DU-145 prostate): 2.33 µM | TGI (DU-145 prostate): 5.38 µM | GI50 (UACC-62 melanoma): 3.78 µM | TGI (UACC-62 melanoma): 15.2 µM | GI50 (HCC-2998 colon): 2.3 µM | TGI (HCC-2998 colon): 6.51 µM | GI50 (LOX IMVI melanoma): 0.447 µM | TGI (LOX IMVI melanoma): 10.8 µM | GI50 (PC-3 prostate): 4.2 µM | TGI (PC-3 prostate): 16.4 µM | GI50 (786-0 renal): 3.24 µM | TGI (786-0 renal): 9.81 µM | GI50 (SNB-75 CNS): 5.11 µM | TGI (SNB-75 CNS): 37.9 µM | GI50 (HL-60(TB) leukemia): 1.7 µM | TGI (HL-60(TB) leukemia): 4.65 µM | GI50 (OVCAR-8 ovarian): 2.48 µM | TGI (OVCAR-8 ovarian): 8.16 µM | GI50 (HCT-15 colon): 2.41 µM | TGI (HCT-15 colon): 10.3 µM | GI50 (K-562 leukemia): 0.303 µM | TGI (K-562 leukemia): 9.59 µM | GI50 (OVCAR-3 ovarian): 3.19 µM | TGI (OVCAR-3 ovarian): 9.21 µM | GI50 (SF-295 CNS): 2.87 µM | TGI (SF-295 CNS): 11.3 µM | GI50 (SF-268 CNS): 3.17 µM | TGI (SF-268 CNS): 12.2 µM | GI50 (OVCAR-4 ovarian): 3 µM | TGI (OVCAR-4 ovarian): 19.9 µM | GI50 (UACC-257 melanoma): 5.46 µM | TGI (UACC-257 melanoma): 18.7 µM | GI50 (U251 CNS): 3.61 µM | TGI (U251 CNS): 14.2 µM | GI50 (NCI-H23 lung): 2.15 µM | TGI (NCI-H23 lung): 12 µM | GI50 (HS 578T breast): 3.99 µM | TGI (HS 578T breast): 32 µM | GI50 (A549 NSCLC): 4.56 µM | TGI (A549 NSCLC): 16.5 µM | GI50 (MALME-3M melanoma): 5.66 µM | TGI (MALME-3M melanoma): 23.9 µM | GI50 (MDA-MB-435): 1.67 µM | TGI (MDA-MB-435): 3.93 µM | GI50 (SN12C renal): 3.63 µM | TGI (SN12C renal): 13.4 µM | GI50 (COLO 205 colon): 2.64 µM | TGI (COLO 205 colon): 6.04 µM | GI50 (ACHN renal): 3.39 µM | TGI (ACHN renal): 13.8 µM | GI50 (TK-10 renal): 3.54 µM | TGI (TK-10 renal): 9.33 µM | GI50 (NCI-H460 lung): 3.1 µM | TGI (NCI-H460 lung): 10.2 µM | GI50 (RPMI-8226 leukemia): 2.6 µM | TGI (RPMI-8226 leukemia): 7.62 µM | GI50 (SNB-19 CNS): 5.25 µM | TGI (SNB-19 CNS): 18.3 µM | GI50 (SF-539 CNS): 3.05 µM | TGI (SF-539 CNS): 11.5 µM

CCN(CC)CCNC(=O)c1cc(Cl)c(N)cc1OC
GI50 (UO-31 renal): 99.1 µM | GI50 (SK-MEL-5 melanoma): 99.6 µM | GI50 (HT29 colon): 20.8 µM | TGI (HT29 colon): 38.7 µM | GI50 (BT-549 breast): 82.3 µM | GI50 (A498 renal): 11.1 µM | TGI (A498 renal): 40.1 µM | GI50 (SNB-75 CNS): 50.2 µM | GI50 (OVCAR-8 ovarian): 28.4 µM | TGI (OVCAR-8 ovarian): 46.2 µM | GI50 (K-562 leukemia): 56.5 µM | GI50 (SF-295 CNS): 25.3 µM | TGI (SF-295 CNS): 44.2 µM | GI50 (UACC-257 melanoma): 13.9 µM | TGI (UACC-257 melanoma): 19.4 µM | GI50 (NCI-H460 lung): 23.5 µM | TGI (NCI-H460 lung): 45.8 µM
